The values that follow are results of earlier work, collected in patent US8236821B2, “Substituted N-phenyl-5-phenyl-pyrazolin-3-yl amides as cannabinoid receptor antagonists/inverse agonists useful for treating obesity” (Jenrin Discovery, Inc., priority 2008, dated 2012).

For the data set the following is noted: type 2 diabetes patients not treated with other anti-diabetic medications; six months of treatment; baseline value 7.9; placebo reduction 0.3%.

On to `Cc1c(C(=O)NN2CCCCC2)nn(-c2ccc(Cl)cc2Cl)c1-c1ccc(Cl)cc1` [rimonabant], for which the HbA1c levels lowered is recorded as 0.8%.
